Experimental data as given in US8748441B2, “Therapeutic uses of quinazolinedione derivatives” (SANOFI, priority 2009, dated 2014).

Experiments:
PDE8 = PDE8 enzymatic assay equivalent to that described for PDE7; format: biochemical
MG7 microglial cells = test: In vitro model of microglial activation: interleukin-1β secretion by LPS-activated MG7 cells (ELISA); format: cell-based, mouse
Experimental: The compounds according to the invention have been evaluated in an in vitro model of microglial activation. After activation by lipopolysaccharide (LPS), the microglial cells secrete large amounts of interleukin-1, which amounts can be quantified by specific assaying in the cell supernatants.
Cultures of microglial cells of the MG7 line derived from the mouse cortex are incubated in the presence of variable concentrations of compounds according to the invention. After incubating at 37° C. for 1 hour, the cells are brought together with LPS, which induces the production of interleukin-1. After treating for 24 h, the amounts of interleukin-1β are measured in the culture supernatants by ELISA assay.

COc1ccc(Cn2c(=O)c3cc(OC(CF)CF)ccc3n(C3CCN(C=O)CC3)c2=O)cc1OC [No. 11, 4-[3-(3,4-dimethoxybenzyl)-6-[2-fluoro-1-(fluoromethyl)ethoxy]-2,4-dioxo-3,4-dihydroquinazolin-1(2H)-yl]piperidine-1-carbaldehyde] gave an IC50 (PDE8) of 140 nM.

Compound N#Cc1cc(Cn2c(=O)c3cc(OC(CF)CF)ccc3n(C3CCN(C=O)CC3)c2=O)ccc1-c1ccccc1 [No. 294, 4-({6-[2-fluoro-1-(fluoromethyl)ethoxy]-1-(1-formylpiperidin-4-yl)-2,4-dioxo-1,4-dihydroquinazolin-3(2H)-yl}methyl)biphenyl-2-carbonitrile] has an IC50 (PDE8) of 15 nM.

O=CN1CCC(n2c(=O)n(Cc3ccc(-c4cccs4)cc3)c(=O)c3cc(OC(CF)CF)c(F)cc32)CC1 [No. 297, 4-{7-fluoro-6-[2-fluoro-1-(fluoromethyl)ethoxy]-2,4-dioxo-3-(4-(thiophen-2-yl)benzyl)-3,4-dihydroquinazolin-1(2H)-yl}piperidine-1-carbaldehyde] was tested, and the inhibition at 3 µM (MG7 microglial cells; Mus musculus, at 3 μM, MG7 microglial cells activated by LPS, 24 h, read-out: maximum inhibitory effect on secretion of interleukin-1β) was 47% and the “secretion of interleukin-1β by MG7 microglial cells activated by LPS” value (MG7 microglial cells; variable concentrations, 1 h preincubation, LPS 24 h) was “significantly decreases, in a concentration-dependent fashion”.
